In PubChem BioAssay AID248 (DTP/NCI, 2004):
Inconclusive results and toxic doses are left out. Rule as the data show it: active = T/C of 150% or more; inactive = T/C below 125%.

Tested on: L1210 leukemia ip in BDF1 mice, survival T/C
Assay: NCI In Vivo Anticancer Drug Screen. Data for tumor model L1210 Leukemia (intraperitoneal) in B6D2F1 (BDF1) mice
Conditions: endpoint: mean survival time, higher = longer survival
Summary of the method: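 Mice bearing the transplanted tumor received compound or vehicle. Survival of the treated group was divided by that of the vehicle-treated control group to give the ratio.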

Measured: T/C

COc1ccc2c3c([nH]c2c1)-c1ccccc1SC3
inactive: dose: 100.0 mg/kg/injection, schedule: Q04DX003 (ip), vehicle: acetone 101 % of control | dose: 200.0 mg/kg/injection, schedule: Q04DX003 (ip), vehicle: acetone 106 % of control | dose: 400.0 mg/kg/injection, schedule: Q04DX003 (ip), vehicle: acetone 101 % of control

Cc1ccc(C(C)(CCC(=O)O)c2ccc(C)o2)o1
inactive: dose: 100.0 mg/kg/injection, schedule: Q04DX003 (ip), vehicle: saline with Tween-80 96 % of control | dose: 200.0 mg/kg/injection, schedule: Q04DX003 (ip), vehicle: saline with Tween-80 96 % of control | dose: 400.0 mg/kg/injection, schedule: Q04DX003 (ip), vehicle: saline with Tween-80 95 % of control

CC(C)(C)C1CCC(NC(=O)CCl)CC1 (configuration not stated)
inactive: dose: 50.0 mg/kg/injection, schedule: Q04DX003 (ip), vehicle: Klucel (hydroxypropylcellulose) (HPC) 98 % of control | dose: 100.0 mg/kg/injection, schedule: Q01DX009 (ip), vehicle: Klucel (hydroxypropylcellulose) (HPC) 103 % of control | dose: 100.0 mg/kg/injection, schedule: Q04DX003 (ip), vehicle: Klucel (hydroxypropylcellulose) (HPC) 96 % of control | dose: 200.0 mg/kg/injection, schedule: Q04DX003 (ip), vehicle: Klucel (hydroxypropylcellulose) (HPC) 102 % of control | dose: 400.0 mg/kg/injection, schedule: Q01DX009 (ip), vehicle: Klucel (hydroxypropylcellulose) (HPC) 94 % of control | dose: 400.0 mg/kg/injection, schedule: Q04DX003 (ip), vehicle: Klucel (hydroxypropylcellulose) (HPC) 104 % of control
